Measurements from patent US20080292736A1, “Bioavailability enhancing activity of carum carvi extracts and fractions thereof” (COUNCIL OF SCIENTIFIC AND INDUSTRIAL RESEARCH, priority 2001, published 2008).

Experiment: Enhancement of bioavailability of drugs given to rats with bioenhancers (plasma drug level by HPLC)
Conditions: for % Enhancement in bioavailability, BE from Carum carvi: drug with Carum carvi bioenhancer (aqueous or 50% alcoholic extract 30 mg/kg or Fraction No. 1 15 mg/kg), drug dose mg/kg; for % Enhancement in bioavailability, Carum carvi + Zingiber officinale: drug with Carum carvi bioenhancer and Zingiber officinale 35 mg/kg; for % Enhancement in bioavailability, Carum carvi + Zingiber officinale / % Enhancement in bioavailability, Carum carvi + Piperine / % Enhancement in bioavailability, BE from Zingiber officinale / % Enhancement in bioavailability, Piperine as BE: drug dose as in row; for % Enhancement in bioavailability, Carum carvi + Piperine: drug with Carum carvi bioenhancer and piperine 8 mg/kg; for % Enhancement in bioavailability, BE from Zingiber officinale: drug with Zingiber officinale 50% alcoholic extract of fresh ginger 35 mg/kg; for % Enhancement in bioavailability, Piperine as BE: drug with piperine 8 mg/kg; for % Enhancement in bioavailability, Carum carvi (Cc) Frac 1.: nutraceutical with Carum carvi Fraction No. 1 15 mg/kg; for % Enhancement in bioavailability, Carum carvi + Zingiber officinale, Frac 1. (Cc): nutraceutical with Carum carvi Fraction No. 1 and Zingiber officinale; for % Enhancement in bioavailability, Carum carvi + piperine, Frac 1. (Cc): nutraceutical with Carum carvi Fraction No. 1 and piperine; for % Enhancement in bioavailability, Carum carvi (Cc) Extr.: nutraceutical with Carum carvi extract 30 mg/kg; for % Enhancement in bioavailability, Carum carvi + Zingiber officinale, Extr. (Cc): nutraceutical with Carum carvi extract and Zingiber officinale; for % Enhancement in bioavailability, Carum carvi + piperine, Extr. (Cc): nutraceutical with Carum carvi extract and piperine

| Compound | % Enhancement in bioavailability, BE from Carum carvi | % Enhancement in bioavailability, Carum carvi + Zingiber officinale | % Enhancement in bioavailability, Carum carvi + Piperine | % Enhancement in bioavailability, BE from Zingiber officinale | % Enhancement in bioavailability, Piperine as BE | % Enhancement in bioavailability, Carum carvi (Cc) Frac 1. | % Enhancement in bioavailability, Carum carvi + Zingiber officinale, Frac 1. (Cc) | % Enhancement in bioavailability, Carum carvi + piperine, Frac 1. (Cc) | % Enhancement in bioavailability, Carum carvi (Cc) Extr. | % Enhancement in bioavailability, Carum carvi + Zingiber officinale, Extr. (Cc) | % Enhancement in bioavailability, Carum carvi + piperine, Extr. (Cc) |
| --- | --- | --- | --- | --- | --- | --- | --- | --- | --- | --- | --- |
| O=c1[nH]cc(F)c(=O)[nH]1 [5-Fluorouracil] | 90% | 100% | 110% | 110% | 87% |  |  |  |  |  |  |
| Cc1nnc2n1-c1ccc(Cl)cc1C(c1ccccc1)=NC2 [Alprazolam] | Nil | 80% | 70% | 76% | 65% |  |  |  |  |  |  |
| CC1(C)S[C@@H]2[C@H](NC(=O)[C@H](N)c3ccc(O)cc3)C(=O)N2[C@H]1C(=O)O [Amoxycillin] | 75% | 100% | 115% | 80% | 120% |  |  |  |  |  |  |
| C[C@@H]1[C@H](O)[C@@H](C)/C=C/C=C/C=C/C=C/C=C/C=C/C=C/[C@H](O[C@@H]2O[C@H](C)[C@@H](O)[C@H](N)[C@@H]2O)C[C@@H]2O[C@](O)(C[C@@H](O)C[C@@H](O)[C@H](O)CC[C@@H](O)C[C@@H](O)CC(=O)O[C@H]1C)C[C@H](O)[C@H]2C(=O)O [Amphotericin B] | 78% | 80% | 90% | Nil | nil |  |  |  |  |  |  |
| CC1=C(/C=C/C(C)=C/C=C/C(C)=C/C=C/C=C(C)/C=C/C=C(C)/C=C/C2=C(C)CCCC2(C)C)C(C)(C)CCC1 [B-carotene] |  |  |  | 35% | 29% | 55% | 72% | 59% | 47% | 63% | 45% |
| CN(Cc1cc(Br)cc(Br)c1N)C1CCCCC1 [Bromhexine] | Nil | 71% | 70% | 67% | 67% |  |  |  |  |  |  |
| [Ca+2] [Calcium] |  |  |  | nil | nil | Nil | Nil | Nil | nil | Nil | nil |
| CO/N=C(\C(=O)N[C@@H]1C(=O)N2C(C(=O)O)=C(CSc3nc(=O)c(O)nn3C)CS[C@H]12)c1csc(N)n1 [Cefetrioxone] | 72% | 75% | 78% | Nil | Nil |  |  |  |  |  |  |
| C=CC1=C(C(=O)O)N2C(=O)[C@@H](NC(=O)/C(=N\O)c3csc(N)n3)[C@H]2SC1 [Cefidinir] | 89% | 130% | 95% | 35% | 60% |  |  |  |  |  |  |
| CN/C(=N/CCSCc1nc[nH]c1C)NC#N [Cimetidine] | 72% | 100% | 84% | 98% | nil |  |  |  |  |  |  |
| Nc1ccc(S(=O)(=O)c2ccc(N)cc2)cc1 [Dapsone] | 56% | 68% | 67% | 46% | 34% |  |  |  |  |  |  |
| COc1cccc2c1C(=O)c1c(O)c3c(c(O)c1C2=O)C[C@@](O)(C(=O)CO)C[C@@H]3O[C@H]1C[C@H](N)[C@H](O)[C@H](C)O1 [Dauxorubicin] | Nil | 69% | 70% | 72% | 68% |  |  |  |  |  |  |
| CCc1cc(C(N)=S)ccn1 [Ethionamide] | 68% | 70% | 65% | 56% | 45% |  |  |  |  |  |  |
| O=C(CCCN1CCC(O)(c2ccc(Cl)cc2)CC1)c1ccc(F)cc1 [Haloperidol] | 95% | 85% | 90% | Nil | nil |  |  |  |  |  |  |
| CC(=O)N1CCN(c2ccc(OCC3COC(Cn4ccnc4)(c4ccc(Cl)cc4Cl)O3)cc2)CC1 (stereo not shown) [Ketoconazole] | 55% | 96% | 100% | 125% | 105% |  |  |  |  |  |  |
| NCCCC[C@H](N[C@@H](CCc1ccccc1)C(=O)O)C(=O)N1CCC[C@H]1C(=O)O [Lisinopril] | 79% | 90% | 95% | 76% | 85% |  |  |  |  |  |  |
| CSCC[C@H](N)C(=O)O [Methionine] |  |  |  | 23% | 11% | 28% | 37% | 30% | 20% | 30% | 25% |
| CN(Cc1cnc2nc(N)nc(N)c2n1)c1ccc(C(=O)N[C@@H](CCC(=O)O)C(=O)O)cc1 [Methotrexate] | 76% | 102% | 89% | 87% | 65% |  |  |  |  |  |  |
| COc1c(C)c2c(c(O)c1C/C=C(\C)CCC(=O)OCCN1CCOCC1)C(=O)OC2 [Mycophenolate Mofeit] | Nil | nil | nil | Nil | nil |  |  |  |  |  |  |
| CS(=O)(=O)Nc1ccc([N+](=O)[O-])cc1Oc1ccccc1 [Nimesulide] | 100% | 145% | 140% | 144% | 132% |  |  |  |  |  |  |
| [K+] [Potassium] |  |  |  | nil | nil | Nil | Nil | Nil | nil | Nil | nil |
| CC(C)NCC(O)COc1cccc2ccccc12 (stereo not shown) [Propranolol] | 68% | 75% | 90% | 76% | 84% |  |  |  |  |  |  |
| CS(=O)(=O)c1ccc(C2=C(c3ccccc3)C(=O)OC2)cc1 [Rofecoxib] | 75% | 80% | 70% | Nil | nil |  |  |  |  |  |  |
| CC(C)(C)NCC(O)c1ccc(O)c(CO)c1 (stereo not shown) [Salbutamol] | 75% | 80% | 89% | 78% | 60% |  |  |  |  |  |  |
| Cn1c(=O)c2[nH]cnc2n(C)c1=O [Theophylline] | 70% | 89% | 79% | 76% | 65% |  |  |  |  |  |  |
| Cc1ncc(C[n+]2csc(CCO)c2C)c(N)n1 [Vit B 1] |  |  |  | 31% | 17% | 42% | 55% | 26% | 37% | 43% | 21% |
